Where two headings read alike, the source gives them in different places. Starred links: 1 amine or outer side, 2 acyl side, 3 side chain; linkers in the order of their positions; H or OH if unused. Non-standard residues stand in square brackets, D forms with d. Residues, ends and D or L forms follow the SMILES beside them. azaβ3(1Nal) = O=C(CN(Cc1cccc2ccccc12)N[*:1])[*:2]; X2 = O=C(CN(Cc1ccc2ccccc2c1)N[*:1])[*:2]; X1 = O=C(CN(CC(O)CO)N[*:1])[*:2]
What was measured:
[1] = tested on: Escherichia coli strain K12 XL-Blue; conditions: for E. coli MIC: strain K12 XL-Blue; for Minimum Bactericidal Concentration (MBC), E. coli: no colonies on BHI agar after 24 h 37°C
Experimental: (§1) The antibacterial activity of the synthesized peptides was measured using a standard microdilution assay. Two bacterial species were tested, Staphylococcus aureus strain Newman and Escherichia coli strain K12 XL-Blue. Bacterial strains were subcultured in Mueller-Hinton broth. […] Bacteria were grown to an optical density (600 nm) of 0.5 and diluted 10^3 times in MH broth. Cell density in wells was 10^5 cfu/mL. 100 μL of this suspension was mixed with 100 μL of 2-fold serial dilutions of peptides in the well of a microtitre plate. Purified peptides were first dissolved in appropriate solvent to a final concentration of 2 mg/mL, in the microtitre plate, dilutions were made in MH broth from 1 to 0.004 mg/mL. […] Results obtained in massic concentrations were converted to molar concentrations for proper comparisons. Tests were performed in triplicate.
(§2) The results presented in Table 2 below were obtained in triplicate as described in the case of Table 1 except that the starting concentration was […] instead of 1 mg/mL.

[2] = tested on: Staphylococcus aureus strain Newman; conditions: for S. aureus MIC: strain Newman; for Minimum Bactericidal Concentration (MBC), S. aureus: no colonies on BHI agar after 24 h 37°C
Experimental: as §1, §2

[3] = Peptides stability in human sera (RP-HPLC)
Experimental: Peptides stability in human sera. […] The initial time was recorded, and at known time intervals, 100 μL of reaction solution was removed and quenched by adding 200 μL of 95% EtOH and adjusted at pH=2 to eliminate the effect of peptides adsorption to the protein of the human serum. The cloudy reaction sample was cooled (4° C.) for 15 minutes and then spun at 14 000 rpm (Eppendorf centrifuge) for 4 minutes to pellet the precipitated serum proteins.
The different peptides were incubated with human serum up to 10 hours, and their stability was analyzed and their half-lives determined by RP-HPLC (FIG. 1).

human erythrocytes = test: Lytic activity against human erythrocytes; assay type: cell-based; conditions: for Human cells H50 (peptide concentration at which half of the human erythrocytes are lysed): Table 1, 2 h 37°C, maximal concentration 1 mg/mL; for hemolysis at 0.2 mg/mL: 0.2 mg/mL (50 μM PepA1, 160 μM Pep11), value expected when choosing SEM concentration; for hemolysis at the MIC: human erythrocytes, at the peptide's MIC; for Human cells % hemolysis at 500 μM / Human cells H50: Table 2; for Human cells H50: maximal concentration 500 μM
Experimental: Human blood was collected from EFS (‘Etablissement Francais du Sang’) in Rennes (France). […] After centrifugation, the absorbance of the supernatant was measured at 414 nm. Three wells were positive controls, where the RBC were mixed with water 1% Triton X-100, in these wells the totality of RBC were hemolyzed and the release of hemoglobin was considered to be 100%. Three wells were negative controls, where the RBC were mixed with PBS buffer, in these wells hemolysis was considered to be null. The percentage of hemolysis in each test well was calculated by comparing with controls. For each peptide, bloods from three different donors were tested.

[4] = tested on: VISA strain S. aureus Mu 50; conditions: Table 2
[5] = tested on: MRSA strain S. aureus N315; conditions: Table 2
[6] = Table 1, 20 h 37°C, maximal concentration 1 mg/mL
[7] = Table 2, starting concentration 500 μM

## CC(C)C[C@@H]1NC(=O)[C@H](Cc2c[nH]c3ccccc23)NC(=O)[C@H](Cc2ccccc2)NC(=O)[C@H](Cc2ccccc2)NC(=O)[C@H](CCCCN)NC(=O)[C@H]([C@@H](C)O)NC(=O)[C@H](CCCNC(=N)N)NC(=O)[C@H](CCCNC(=N)N)NC(=O)[C@H](CO)NC1=O [Pep6] (cyclo(FFWLSRRTK))
[1]
  MIC, fold reduced compared to Pep5, E. coli: ten-fold
[2]
  MIC, fold reduced compared to Pep5, S. aureus: ten-fold
[2]; species not specified
  fold higher activity than linear Pep4: 4 fold
[3]
  stabilizing effect in human serum compared with linear Pep4: ~320 fold
Human erythrocytes
  lysis of human erythrocytes (in words): substantial hemolysis
  Human cells H50 (peptide concentration at which half of the human erythrocytes are lysed): 5 µM

## C[C@@H](O)[C@@H]1NC(=O)[C@H](CCCNC(=N)N)NC(=O)[C@H](CCCNC(=N)N)NC(=O)[C@H](CO)NC(=O)[C@H](Cc2c[nH]c3ccccc23)NC(=O)[C@H](Cc2ccccc2)NC(=O)[C@H](Cc2ccccc2)NC(=O)[C@H](CCCCN)NC1=O [Pep7] (cyclo(FFWSRRTK))
[1]; [6]
  E. coli MIC: 13 µM
[2]; [6]
  S. aureus MIC: 30 µM
[2]; species not specified
  antibacterial activity, fold increase compared to Pep6: two-fold
Human erythrocytes
  Human cells H50 (peptide concentration at which half of the human erythrocytes are lysed): 14 µM

## C[C@@H](O)[C@@H]1NC(=O)[C@H](CCCNC(=N)N)NC(=O)[C@H](CCCNC(=N)N)NC(=O)[C@H](Cc2c[nH]c3ccccc23)NC(=O)[C@H](Cc2ccccc2)NC(=O)[C@H](Cc2ccccc2)NC(=O)[C@H](CCCCN)NC1=O [Pep8, (FFWRRTK)] (cyclo(FFWRRTK))
[2]; species not specified
  fold more antibacterial than Pep7: ~3 fold
Human erythrocytes
  fold less hemolytic than Pep7: 10 fold
  Human cells H50 (peptide concentration at which half of the human erythrocytes are lysed): 160 µM

## CC(C)C[C@H](NC(=O)[C@H](Cc1c[nH]c2ccccc12)NC(=O)[C@H](Cc1ccccc1)NC(=O)[C@@H](N)Cc1ccccc1)C(=O)N[C@@H](CCCNC(=N)N)C(=O)N[C@@H](CCCNC(=N)N)C(=O)NN(CC(=O)N[C@@H](CCCCN)C(N)=O)CC(O)CO (stereo partly shown) [Pep9, H-FFWLRRΨHytK-NH2] (H-FFWLRR[X1]K-NH2)
[1]; [6]
  E. coli MIC: 100 µM
[2]
  MIC, fold lower compared to Pep4, S. aureus: two-fold
[2]; [6]
  S. aureus MIC: 100 µM
Human erythrocytes
  lysis of human erythrocytes (in words): did not trigger detectable lysis
  Human cells H50 (peptide concentration at which half of the human erythrocytes are lysed): nd (not detectable at the maximal concentration tested (1 mg/mL, 300 to 900 μM))

## CC(C)C[C@@H]1NC(=O)[C@H](Cc2c[nH]c3ccccc23)NC(=O)[C@H](Cc2ccccc2)NC(=O)[C@H](Cc2ccccc2)NC(=O)[C@H](CCCCN)NC(=O)CN(CC(O)CO)NC(=O)[C@H](CCCNC(=N)N)NC(=O)[C@H](CCCNC(=N)N)NC1=O (stereo partly shown) [Pep10, (FFWLRRΨHytK)] (cyclo(FFWLRR[X1]K))
[1]
  MIC, fold lower compared to Pep9, E. coli: seven-fold
[1]; [6]
  E. coli MIC: 13 µM
[2]
  MIC, fold lower compared to Pep9, S. aureus: four
[2]; [6]
  S. aureus MIC: 25 µM
Human erythrocytes
  lysis of human erythrocytes (in words): slightly hemolytic
  Human cells H50 (peptide concentration at which half of the human erythrocytes are lysed): 150 µM

## N=C(N)NCCC[C@@H]1NC(=O)[C@H](Cc2c[nH]c3ccccc23)NC(=O)[C@H](Cc2ccccc2)NC(=O)[C@H](Cc2ccccc2)NC(=O)[C@H](CCCCN)NC(=O)CN(CC(O)CO)NC(=O)[C@H](CCCNC(=N)N)NC1=O (stereo partly shown) [Pep11, (FFWRRΨHytK)] (cyclo(FFWRR[X1]K))
[1]; [6]
  E. coli MIC: 3 µM
[1]
  Minimum Bactericidal Concentration (MBC), E. coli: 8 µM
[2]; [6]
  S. aureus MIC: 7 µM
[2]; against the two model bacteria
  fold higher antibacterial activity compared to Pep10: four-fold
[2]
  Minimum Bactericidal Concentration (MBC), S. aureus: 16 µM
[3]
  higher stability in human serum than the PepA1 parental peptide: ~240 fold
Human erythrocytes
  fold less haemolytic on human erythrocytes than PepA1: about 12 fold
  fold less hemolytic compared to Pep10: six-fold
  hemolysis at 0.2 mg/mL: 10%
  Human cells H50 (peptide concentration at which half of the human erythrocytes are lysed): 840 µM
  hemolysis at the MIC: no hemolysis

## N=C(N)NCCC[C@@H]1NC(=O)[C@H](Cc2c[nH]c3ccccc23)NC(=O)[C@H](Cc2ccccc2)NC(=O)CN(Cc2cccc3ccccc23)NC(=O)[C@H](CCCCN)NC(=O)CN(CC(O)CO)NC(=O)[C@H](CCCNC(=N)N)NC1=O (stereo partly shown) [Pep12, (Ψ1Nal-FWRR-ΨHyt-K)] (cyclo([azaβ3(1Nal)]FWRR[X1]K))
[1]; [7]
  E. coli MIC: 16 µM
[2]; [7]
  S. aureus MIC: 16 µM
Human erythrocytes
  Human cells % hemolysis at 500 μM: 98%
  Human cells H50: 220 µM

## N=C(N)NCCC[C@@H]1NC(=O)CN(Cc2ccc3ccccc3c2)NC(=O)[C@H](Cc2ccccc2)NC(=O)[C@H](Cc2ccccc2)NC(=O)[C@H](CCCCN)NC(=O)CN(CC(O)CO)NC(=O)[C@H](CCCNC(=N)N)NC1=O (stereo partly shown) [Pep15, (FFΨ2-Nal-RR-ΨHyt-K)] (cyclo(FF[X2]RR[X1]K))
[1]; [7]
  E. coli MIC: 2 µM
[2]; [7]
  S. aureus MIC: 2 µM
[4]
  VISA MIC: 2 µM
Human erythrocytes
  Human cells % hemolysis at 500 μM: 3%
  Human cells H50: nd (not detectable at the maximal concentration tested (500 μM))
[5]
  MRSA MIC: 2 µM

## CC(C)N1CC(=O)N[C@@H](CCCCN)C(=O)NN(Cc2ccc3ccccc3c2)CC(=O)N[C@@H](Cc2ccccc2)C(=O)NN(Cc2ccc3ccccc3c2)CC(=O)N[C@@H](CCCNC(=N)N)C(=O)N[C@@H](CCCNC(=N)N)C(=O)N1 [Pep16, (Ψ2Nal-F-Ψ2Nal-RR-ΨV-K)]
Human erythrocytes
  Human cells H50: nd (not detectable at the maximal concentration tested (500 μM))

## CC(C)[C@@H]1NC(=O)[C@H](CCCNC(=N)N)NC(=O)[C@H](CCCNC(=N)N)NC(=O)[C@H](Cc2c[nH]c3ccccc23)NC(=O)[C@H](Cc2ccccc2)NC(=O)[C@H](Cc2ccccc2)NC(=O)[C@H](CCCCN)NC1=O [Pep18, (FFWRRVK)] (cyclo(FFWRRVK))
[1]; [7]
  E. coli MIC: 4 µM
[2]; [7]
  S. aureus MIC: 4 µM
[4]
  VISA MIC: 8 µM
[5]
  MRSA MIC: 8 µM

## CC(C)[C@@H]1NC(=O)[C@H](CCCNC(=N)N)NC(=O)[C@H](CCCNC(=N)N)NC(=O)CN(Cc2cccc3ccccc23)NC(=O)[C@H](Cc2ccccc2)NC(=O)CN(Cc2cccc3ccccc23)NC(=O)[C@H](CCCCN)NC1=O [Pep19, (Ψ1Nal-F-Ψ1Nal-RRVK)] (cyclo([azaβ3(1Nal)]F[azaβ3(1Nal)]RRVK))
[1]; [7]
  E. coli MIC: 4 µM
[2]; [7]
  S. aureus MIC: 4 µM
[4]
  VISA MIC: 4 µM
Human erythrocytes
  Human cells % hemolysis at 500 μM: 7%
  Human cells H50: nd (not detectable at the maximal concentration tested (500 μM))
[5]
  MRSA MIC: 4 µM

## CC(C)N(CC(=O)N[C@@H](CCCCN)C(N)=O)NC(=O)[C@H](CCCNC(=N)N)NC(=O)[C@H](CCCNC(=N)N)NC(=O)CN(Cc1ccc2ccccc2c1)NC(=O)[C@H](Cc1ccccc1)NC(=O)CN(N)Cc1ccc2ccccc2c1 [Pep21, H-Ψ2Nal-F-Ψ2Nal-RR-ΨV-K-NH2]
Human erythrocytes
  Human cells H50: nd (not detectable at the maximal concentration tested (500 μM))

## H-FFSWLSRRTK-NH2 [Pep3]
[1]; [6]
  E. coli MIC: 95 µM
[2]; [6]
  S. aureus MIC: 190 µM
Human erythrocytes
  Human cells H50 (peptide concentration at which half of the human erythrocytes are lysed): nd (not detectable at the maximal concentration tested (1 mg/mL, 300 to 900 μM))

## H-FFSYWLSRRTK-NH2 [Pep2]
[1]; [6]
  E. coli MIC: 80 µM
[2]; [6]
  S. aureus MIC: 170 µM
Human erythrocytes
  Human cells H50 (peptide concentration at which half of the human erythrocytes are lysed): nd (not detectable at the maximal concentration tested (1 mg/mL, 300 to 900 μM))

## H-FFWLSRRTK-NH2 [Pep4]
[1]; [6]
  E. coli MIC: 100 µM
[2]; [6]
  S. aureus MIC: 200 µM
Human erythrocytes
  Human cells H50 (peptide concentration at which half of the human erythrocytes are lysed): nd (not detectable at the maximal concentration tested (1 mg/mL, 300 to 900 μM))

## H-FFWLSRTK-NH2 [Pep5]
[1]
  MIC, fold higher than Pep4, E. coli: two-fold
[2]
  MIC, fold higher than Pep4, S. aureus: two-fold
Human erythrocytes
  Human cells H50 (peptide concentration at which half of the human erythrocytes are lysed): nd (not detectable at the maximal concentration tested (1 mg/mL, 300 to 900 μM))

## H-MLIFVHIIAPVISGCAIAFFSYWLSRRNTK-NH2 [PepA1, reference compound]
[1]; [6]
  E. coli MIC: 8 µM
[1]
  Minimum Bactericidal Concentration (MBC), E. coli: 16 µM
[2]; [6]
  S. aureus MIC: 8 µM
[2]
  Minimum Bactericidal Concentration (MBC), S. aureus: 16 µM
Human erythrocytes
  hemolysis at 0.2 mg/mL: 50%
  Human cells H50 (peptide concentration at which half of the human erythrocytes are lysed): 70 µM
  hemolysis at the MIC: 20%

From patent US10220112B2, “Cyclic antimicrobial pseudopeptides and uses thereof” (INSERM (INSTITUT NATIONAL DE LA SANTE ET DE LA RECHERCHE …, priority 2014, dated 2019)
